The source of these data is US20030176470A1, “Topical composition containing at least one aryl oxime, and method for the preparation thereof” (priority 2000, published 2003).

The nature of series [1]: solubility in different solvents. The class given is physicochemical. The note with it: in solvents such as isopropanol, acetone, chloroform, 2-phenylethanol and Triton-X100. As to the method:
Numerous studies were conducted in order to obtain optimum compositions of the active agent in which an improvement of solubility and, a prevention of the formation of crystals is achieved. […] Therefore, the carriers must be non-toxic, non-carcinogenic and skin compatible and, furthermore, should be odour neutral. Moreover, these carriers, e.g. solvents or emulsifiers, should be compatible with the major part of the topical composition, i.e. an aqueous phase or an oil phase, and should not form a separate phase or lead to the precipitation of the active agent.

A short description of series [2]: stability of ethanolic solutions of the active agent. The class given is physicochemical. The source says: During investigations regarding the solubility of, in particular, 2-hydroxy-5-methyl-laurophenone oxime, solutions could be prepared which are stable after 4 days at room temperature under the exclusion of UV light. These solutions were ethanolic solutions of the active agent which included further components such as 0.8/1.0 and 2.0% PEG600 or PEG6000. The active agent was present in these solutions in an amount of 10 wt. %. […] These solutions can be incorporated into water in order to prepare topical formulations.

As for 2-hydroxy-5-methyl-laurophenone oxime, the solubility entry in series [1] was “good solubility”. The formation of crystals result in series [2] (ethanolic PEG solutions, amount of active agent increased above 10 wt. %) is given as “formation of crystals was observed”; in series [2] (solution of the active agent incorporated into water at 10 to 20 wt. % of the formulation), “in some cases the formation of crystals”. The stability of solution result in series [2] (ethanolic solutions with 0.8/1.0 and 2.0% PEG600 or PEG6000, active agent 10 wt. %, 4 days at room temperature under exclusion of UV light) is “stable”.
